According to ChEMBL document CHEMBL5465560, “Selectivity Literature for EUbOPEN Chemogenomic Library” (2024):

Legend:
[1] = target: Cyclin-dependent kinase 2 (Homo sapiens, UniProt P24941); assay: Selectivity interaction (KinomeScan (DiscoverX)) EUB0001079a CDK2; conditions: at 1 µM
[2] = target: Cyclin-dependent kinase-like 1 (Homo sapiens) (UniProt Q00532); assay: Selectivity interaction (KinomeScan (DiscoverX)) EUB0001079a CDKL1; conditions: at 1 µM
[3] = target: T1, Scaffold protein ILK (Homo sapiens) (UniProt Q13418); assay: Selectivity interaction (ActivX KiNativ screen (kinase selectivity in THP-1 cell lysates)) EUB0000639a ILK; format: subcellular; conditions: lysate
T1 sequence (whole entry): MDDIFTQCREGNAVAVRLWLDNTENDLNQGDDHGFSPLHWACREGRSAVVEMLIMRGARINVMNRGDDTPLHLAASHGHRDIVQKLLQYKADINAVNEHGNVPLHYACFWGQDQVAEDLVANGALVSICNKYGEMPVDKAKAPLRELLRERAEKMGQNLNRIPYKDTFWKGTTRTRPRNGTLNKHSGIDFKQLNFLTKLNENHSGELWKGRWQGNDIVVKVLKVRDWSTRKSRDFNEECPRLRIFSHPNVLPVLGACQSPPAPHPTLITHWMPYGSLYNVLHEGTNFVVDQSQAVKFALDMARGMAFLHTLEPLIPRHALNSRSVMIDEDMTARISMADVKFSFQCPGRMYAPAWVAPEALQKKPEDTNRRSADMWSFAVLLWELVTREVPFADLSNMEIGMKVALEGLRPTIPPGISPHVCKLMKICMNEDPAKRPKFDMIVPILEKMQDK

[4] = target: Ribosomal protein S6 kinase alpha-3 (Homo sapiens, UniProt P51812); assay: Selectivity interaction (ActivX KiNativ screen (kinase selectivity in THP-1 cell lysates)) EUB0000639a RPS6KA3; format: subcellular; conditions: lysate, at 5 µM
Sequence of Ribosomal protein S6 kinase alpha-3 (P51812 whole entry): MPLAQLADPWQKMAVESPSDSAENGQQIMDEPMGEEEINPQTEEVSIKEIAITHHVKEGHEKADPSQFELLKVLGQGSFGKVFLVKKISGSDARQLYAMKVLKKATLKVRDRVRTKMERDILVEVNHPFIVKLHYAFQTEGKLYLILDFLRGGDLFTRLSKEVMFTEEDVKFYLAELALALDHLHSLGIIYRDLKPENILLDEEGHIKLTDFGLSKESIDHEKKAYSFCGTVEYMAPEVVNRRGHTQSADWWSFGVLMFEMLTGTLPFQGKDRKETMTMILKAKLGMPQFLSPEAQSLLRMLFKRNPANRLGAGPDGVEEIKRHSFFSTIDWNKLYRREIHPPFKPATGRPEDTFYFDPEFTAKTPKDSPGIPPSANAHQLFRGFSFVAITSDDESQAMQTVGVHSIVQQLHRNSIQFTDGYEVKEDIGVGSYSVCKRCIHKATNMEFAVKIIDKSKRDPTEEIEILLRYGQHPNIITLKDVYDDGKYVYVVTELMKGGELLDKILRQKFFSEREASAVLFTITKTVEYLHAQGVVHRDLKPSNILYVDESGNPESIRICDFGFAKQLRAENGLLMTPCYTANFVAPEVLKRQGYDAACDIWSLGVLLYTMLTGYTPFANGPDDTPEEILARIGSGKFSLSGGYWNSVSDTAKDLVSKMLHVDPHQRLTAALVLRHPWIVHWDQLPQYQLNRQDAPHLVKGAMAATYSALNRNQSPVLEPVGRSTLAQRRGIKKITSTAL

[5] = target: Serine/threonine-protein kinase Nek6 (Homo sapiens) (UniProt Q9HC98); conditions: at 10 µM
Sequence of Serine/threonine-protein kinase Nek6 (Homo sapiens) (Q9HC98 whole entry): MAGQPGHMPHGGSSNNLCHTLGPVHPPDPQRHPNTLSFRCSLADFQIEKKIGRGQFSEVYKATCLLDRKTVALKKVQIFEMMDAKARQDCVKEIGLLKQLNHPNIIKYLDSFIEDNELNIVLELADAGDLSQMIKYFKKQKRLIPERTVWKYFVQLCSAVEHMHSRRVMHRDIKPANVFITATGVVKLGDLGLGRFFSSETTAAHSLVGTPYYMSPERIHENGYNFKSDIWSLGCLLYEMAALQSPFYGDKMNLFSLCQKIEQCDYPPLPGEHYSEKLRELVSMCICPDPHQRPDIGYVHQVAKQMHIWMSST

[6] = target: T2, NUAK family SNF1-like kinase 1 (Homo sapiens) (UniProt O60285); assay: Selectivity interaction (Kinase panel (Carna Biosciences)) EUB0001542aTs NUAK1; conditions: at 1 µM
T2 sequence (whole entry): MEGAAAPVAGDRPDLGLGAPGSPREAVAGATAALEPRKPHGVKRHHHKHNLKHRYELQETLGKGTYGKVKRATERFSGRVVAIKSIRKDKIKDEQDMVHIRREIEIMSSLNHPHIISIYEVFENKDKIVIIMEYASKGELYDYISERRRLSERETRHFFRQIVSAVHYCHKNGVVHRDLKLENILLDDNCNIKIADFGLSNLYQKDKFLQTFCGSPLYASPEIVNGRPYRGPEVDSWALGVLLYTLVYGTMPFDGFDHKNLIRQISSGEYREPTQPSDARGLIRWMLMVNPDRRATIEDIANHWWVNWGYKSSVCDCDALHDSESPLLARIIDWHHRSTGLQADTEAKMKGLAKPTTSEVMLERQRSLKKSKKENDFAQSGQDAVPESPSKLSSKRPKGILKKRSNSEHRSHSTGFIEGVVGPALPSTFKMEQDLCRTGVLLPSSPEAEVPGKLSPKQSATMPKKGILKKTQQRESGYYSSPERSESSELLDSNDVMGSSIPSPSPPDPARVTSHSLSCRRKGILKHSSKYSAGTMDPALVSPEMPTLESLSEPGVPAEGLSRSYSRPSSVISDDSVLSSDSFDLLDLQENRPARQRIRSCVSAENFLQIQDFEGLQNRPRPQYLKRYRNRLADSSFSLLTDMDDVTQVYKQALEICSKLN

[7] = target: AMP-activated protein kinase alpha-2/beta-2/gamma-2 (Homo sapiens) (UniProt P54646+O43741+Q9UGJ0); assay: (§1) Selectivity interaction (LanthaScreen Eu Kinase Binding Assay) EUB0001632a […]; format: protein-complex assay; conditions: at 10 µM
Sequence of AMP-activated protein kinase alpha-2/beta-2/gamma-2 (Homo sapiens) (O43741 whole entry, looked up): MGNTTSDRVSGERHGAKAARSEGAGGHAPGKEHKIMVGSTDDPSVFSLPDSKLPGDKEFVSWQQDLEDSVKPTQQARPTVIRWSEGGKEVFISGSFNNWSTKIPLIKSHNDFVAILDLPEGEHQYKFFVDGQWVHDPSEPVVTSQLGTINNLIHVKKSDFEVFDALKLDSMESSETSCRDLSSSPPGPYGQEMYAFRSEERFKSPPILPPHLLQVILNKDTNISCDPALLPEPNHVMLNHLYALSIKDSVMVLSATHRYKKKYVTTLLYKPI
Sequence of AMP-activated protein kinase alpha-2/beta-2/gamma-2 (Homo sapiens) (P54646 whole entry, looked up): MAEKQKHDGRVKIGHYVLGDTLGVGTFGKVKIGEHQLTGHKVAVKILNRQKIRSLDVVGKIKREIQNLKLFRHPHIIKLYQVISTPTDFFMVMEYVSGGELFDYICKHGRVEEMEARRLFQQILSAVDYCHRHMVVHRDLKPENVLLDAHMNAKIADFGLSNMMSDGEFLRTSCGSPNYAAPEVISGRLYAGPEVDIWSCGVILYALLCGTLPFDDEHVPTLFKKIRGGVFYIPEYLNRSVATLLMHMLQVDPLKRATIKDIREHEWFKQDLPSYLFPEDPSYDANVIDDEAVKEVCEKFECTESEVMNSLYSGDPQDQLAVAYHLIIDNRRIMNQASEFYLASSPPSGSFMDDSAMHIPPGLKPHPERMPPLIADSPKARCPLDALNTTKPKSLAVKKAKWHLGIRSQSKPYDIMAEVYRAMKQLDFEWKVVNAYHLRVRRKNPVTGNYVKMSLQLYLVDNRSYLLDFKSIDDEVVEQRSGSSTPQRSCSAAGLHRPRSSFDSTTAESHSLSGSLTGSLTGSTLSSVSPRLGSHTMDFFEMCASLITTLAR
Sequence of AMP-activated protein kinase alpha-2/beta-2/gamma-2 (Homo sapiens) (Q9UGJ0 whole entry, looked up): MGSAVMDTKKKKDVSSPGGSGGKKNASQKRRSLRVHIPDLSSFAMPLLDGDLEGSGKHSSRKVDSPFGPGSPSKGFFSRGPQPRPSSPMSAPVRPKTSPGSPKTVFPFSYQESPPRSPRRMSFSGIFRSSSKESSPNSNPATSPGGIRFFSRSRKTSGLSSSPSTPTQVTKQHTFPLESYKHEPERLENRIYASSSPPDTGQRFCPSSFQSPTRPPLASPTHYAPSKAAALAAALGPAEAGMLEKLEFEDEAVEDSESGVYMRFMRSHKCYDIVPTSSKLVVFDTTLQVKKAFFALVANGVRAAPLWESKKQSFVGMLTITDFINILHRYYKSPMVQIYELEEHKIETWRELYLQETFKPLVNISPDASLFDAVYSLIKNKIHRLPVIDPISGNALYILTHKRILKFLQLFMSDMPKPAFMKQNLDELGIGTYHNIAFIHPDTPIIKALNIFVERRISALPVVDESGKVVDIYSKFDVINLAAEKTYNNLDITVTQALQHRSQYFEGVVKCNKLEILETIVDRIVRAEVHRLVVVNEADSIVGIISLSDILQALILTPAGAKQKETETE

[8] = target: AMPK alpha1/beta1/gamma2 (Homo sapiens) (UniProt Q9UGJ0+Q9Y478+Q13131); assay: as §1; format: protein-complex assay; conditions: at 10 µM
[9] = target: AMPK alpha1/beta1/gamma3 (Homo sapiens) (UniProt Q9Y478+Q13131+Q9UGI9); assay: as §1; format: protein-complex assay; conditions: at 10 µM
[10] = target: AMPK alpha1/beta2/gamma1 (Homo sapiens) (UniProt O43741+P54619+Q13131); assay: as §1; format: protein-complex assay; conditions: at 10 µM
Sequence of AMPK alpha1/beta2/gamma1 (Homo sapiens) (O43741 whole entry, looked up): as the sequence (O43741 whole entry, looked up) above
Sequence of AMPK alpha1/beta2/gamma1 (Homo sapiens) (P54619 whole entry, looked up): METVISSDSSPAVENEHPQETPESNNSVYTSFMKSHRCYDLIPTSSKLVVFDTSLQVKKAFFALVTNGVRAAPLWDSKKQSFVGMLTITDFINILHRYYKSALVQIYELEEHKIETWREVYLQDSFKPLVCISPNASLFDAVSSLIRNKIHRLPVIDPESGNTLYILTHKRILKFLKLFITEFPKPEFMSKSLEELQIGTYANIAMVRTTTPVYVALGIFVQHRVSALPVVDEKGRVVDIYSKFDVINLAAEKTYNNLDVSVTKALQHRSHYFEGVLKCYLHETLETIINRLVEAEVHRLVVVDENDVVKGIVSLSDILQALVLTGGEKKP
Sequence of AMPK alpha1/beta2/gamma1 (Homo sapiens) (Q13131 whole entry, looked up): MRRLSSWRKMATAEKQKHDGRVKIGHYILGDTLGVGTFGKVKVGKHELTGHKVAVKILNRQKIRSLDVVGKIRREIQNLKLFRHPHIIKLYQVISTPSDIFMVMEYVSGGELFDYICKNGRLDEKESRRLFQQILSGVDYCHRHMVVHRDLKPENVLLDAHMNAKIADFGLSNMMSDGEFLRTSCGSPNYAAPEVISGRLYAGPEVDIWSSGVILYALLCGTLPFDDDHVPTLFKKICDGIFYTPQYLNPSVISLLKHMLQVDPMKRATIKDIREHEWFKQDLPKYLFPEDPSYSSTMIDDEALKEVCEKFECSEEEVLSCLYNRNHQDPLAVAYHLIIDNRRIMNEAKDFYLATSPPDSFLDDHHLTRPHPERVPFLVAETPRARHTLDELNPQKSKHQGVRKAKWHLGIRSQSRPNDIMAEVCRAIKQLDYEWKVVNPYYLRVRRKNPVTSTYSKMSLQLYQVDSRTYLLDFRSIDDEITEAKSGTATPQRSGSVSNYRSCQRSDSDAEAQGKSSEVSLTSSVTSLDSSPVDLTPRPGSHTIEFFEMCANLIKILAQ

[11] = target: AMPK alpha2/beta2/gamma1 (Homo sapiens) (UniProt P54646+O43741+P54619); assay: as §1; format: protein-complex assay; conditions: at 10 µM
Sequence of AMPK alpha2/beta2/gamma1 (Homo sapiens) (O43741 whole entry, looked up): as the sequence (O43741 whole entry, looked up) above
Sequence of AMPK alpha2/beta2/gamma1 (Homo sapiens) (P54619 whole entry, looked up): as the sequence (P54619 whole entry, looked up) above
Sequence of AMPK alpha2/beta2/gamma1 (Homo sapiens) (P54646 whole entry, looked up): as the sequence (P54646 whole entry, looked up) above

[12] = target: Dual specificity protein kinase CLK1 (Homo sapiens, UniProt P49759); assay: Selectivity interaction (Kinase panel (Z-LYTE Assay)) EUB0001632a CLK1; conditions: at 10 µM
[13] = target: T3, Ephrin type-B receptor 4 (Homo sapiens) (UniProt P54760); assay: Selectivity interaction (Kinase panel (Z-LYTE Assay)) EUB0001632a EPHB4; conditions: at 10 µM
T3 sequence (whole entry): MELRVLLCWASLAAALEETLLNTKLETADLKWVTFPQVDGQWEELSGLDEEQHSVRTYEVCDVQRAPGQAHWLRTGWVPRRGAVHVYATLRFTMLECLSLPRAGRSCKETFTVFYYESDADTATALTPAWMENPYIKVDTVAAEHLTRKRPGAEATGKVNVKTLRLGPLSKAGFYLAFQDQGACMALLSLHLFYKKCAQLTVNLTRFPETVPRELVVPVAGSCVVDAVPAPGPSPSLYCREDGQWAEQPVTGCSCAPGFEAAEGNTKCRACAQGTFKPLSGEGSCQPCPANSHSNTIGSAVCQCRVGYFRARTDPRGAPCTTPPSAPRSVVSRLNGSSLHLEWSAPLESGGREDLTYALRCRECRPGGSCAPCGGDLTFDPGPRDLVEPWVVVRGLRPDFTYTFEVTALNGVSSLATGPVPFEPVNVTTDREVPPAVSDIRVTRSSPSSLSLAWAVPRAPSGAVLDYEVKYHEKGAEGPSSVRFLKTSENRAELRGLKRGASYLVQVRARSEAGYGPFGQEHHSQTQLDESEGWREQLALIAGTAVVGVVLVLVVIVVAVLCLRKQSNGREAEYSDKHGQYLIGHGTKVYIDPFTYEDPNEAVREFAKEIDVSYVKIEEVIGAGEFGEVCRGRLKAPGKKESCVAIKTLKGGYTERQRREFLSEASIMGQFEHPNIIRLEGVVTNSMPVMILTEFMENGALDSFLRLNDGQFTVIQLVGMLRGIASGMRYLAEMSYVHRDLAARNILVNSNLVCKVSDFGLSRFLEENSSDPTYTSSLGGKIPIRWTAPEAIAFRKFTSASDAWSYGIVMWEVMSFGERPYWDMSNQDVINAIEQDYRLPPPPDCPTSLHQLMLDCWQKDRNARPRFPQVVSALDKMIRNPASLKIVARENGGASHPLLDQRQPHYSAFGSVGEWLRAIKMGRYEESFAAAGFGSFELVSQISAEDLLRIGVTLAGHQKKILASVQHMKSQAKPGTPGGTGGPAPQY

With `Nc1cnc(N2CCc3cc(S(=O)(=O)Nc4c(F)cc(Cl)cc4F)cc(N4CCCC4=O)c32)nc1` [TP-020n] the % of control [1] was 100% and the % of control [2] was 85%.

`CC[C@@H]1[C@H](F)C(=O)N[C@@H]1COc1nccc2cc(C(N)=O)c(OC)cc12` [ZIMLOVISERTIB] was tested, and the % of inhibition ([3]; at 0.01 µM) was 6.6%, the % of inhibition ([3]; at 0.04 µM) was 1.4% and the % of inhibition ([3]; at 0.2 µM) was 11.2%. The % of inhibition ([3]; at 1 µM) was 7.8%, the % of inhibition ([3]; at 5 µM) was -3.7% and the % of inhibition [4] was 1.6%.

Work on `COCC(=O)NC/C=C/c1ccc2ncnc(Nc3ccc(Oc4ccc(C)nc4)c(C)c3)c2c1` [CP-724714] yielded a % of control [5] of 100%.

With `Cn1cc(Nc2nccc(N3CC4CCC(C3)N4C(=O)[C@@H]3CC3(F)F)n2)cn1` the % of inhibition [6] was 60%.

`Cn1cc(-n2cnc3c(NCc4nc5cc(Cl)c(Cl)cc5[nH]4)nc(N4CCOCC4)nc32)cn1` was tested, and the % of inhibition [7] was 1.19%, the % of inhibition [8] was 0.872% and the % of inhibition [9] was 2.78%. The % of inhibition [10] was -9.67%, the % of inhibition [11] was -4.3% and the % of control [12] was 8.07%. The % of control [13] was -10.1%.
